Measured values from ChEMBL document CHEMBL1201862, “PubChem BioAssay data set” (2004).
Calls of active or inactive are those of the source.

What was measured:
[1] = test system: A-375; assay: MITF: Counter assay: A375 proliferation Measured in Cell-Based System Using Plate Reader - 2084-03_Inhibitor_Dose_DryPowder_Activity. [Related pubchem assays (depositor defined):AID488944]; type: functional; details: Homo sapiens
[2] = test system: A-375; assay: A375 melanoma cell viability reduction, dose response, counter-screen for MITF modulator project, cherry-pick samples, set 2 (AID 540335); type: functional, cell-based; details: Homo sapiens
[3] = test system: Escherichia coli; assay: microbe, parasite or virus in culture
[4] = test system: Escherichia coli; assay: microbe, parasite or virus in culture; remark: listed apart in the source
[5] = target: Delta-type opioid receptor (Homo sapiens, UniProt P41143); assay: Counterscreen for agonists of heterodimerization of the mu 1 (OPRM1) and delta 1 (OPRD1) opioid receptors: Luminescence-based cell-based high throughput dose response assay to identify agonists of OPRD1 homodimerization. [Related pubchem assays (depositor defined):AID504326, AID504355, AID504692, AID504904, AID504905]; type: functional
Delta-type opioid receptor, sequence (P41143 whole entry): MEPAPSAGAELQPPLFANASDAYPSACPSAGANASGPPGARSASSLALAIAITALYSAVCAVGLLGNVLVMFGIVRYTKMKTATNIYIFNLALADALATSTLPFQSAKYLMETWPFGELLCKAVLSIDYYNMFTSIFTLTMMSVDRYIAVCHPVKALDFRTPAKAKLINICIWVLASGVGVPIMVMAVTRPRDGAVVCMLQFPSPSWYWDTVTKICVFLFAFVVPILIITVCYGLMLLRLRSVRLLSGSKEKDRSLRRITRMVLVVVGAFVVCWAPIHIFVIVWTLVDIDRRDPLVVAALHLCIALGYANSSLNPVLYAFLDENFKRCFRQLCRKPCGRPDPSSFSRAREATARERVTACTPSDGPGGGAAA

[6] = target: Mu-type opioid receptor (Homo sapiens, UniProt P35372); assay: Counterscreen for agonists of heterodimerization of the mu 1 (OPRM1) and delta 1 (OPRD1) opioid receptors: Luminescence-based cell-based high throughput dose response assay to identify agonists of OPRM1 homodimerization.; type: functional;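 further: U2OS cells expressing OPRM1 and beta-arrestin as split beta-galactosidase partners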
Mu-type opioid receptor, sequence (P35372 whole entry): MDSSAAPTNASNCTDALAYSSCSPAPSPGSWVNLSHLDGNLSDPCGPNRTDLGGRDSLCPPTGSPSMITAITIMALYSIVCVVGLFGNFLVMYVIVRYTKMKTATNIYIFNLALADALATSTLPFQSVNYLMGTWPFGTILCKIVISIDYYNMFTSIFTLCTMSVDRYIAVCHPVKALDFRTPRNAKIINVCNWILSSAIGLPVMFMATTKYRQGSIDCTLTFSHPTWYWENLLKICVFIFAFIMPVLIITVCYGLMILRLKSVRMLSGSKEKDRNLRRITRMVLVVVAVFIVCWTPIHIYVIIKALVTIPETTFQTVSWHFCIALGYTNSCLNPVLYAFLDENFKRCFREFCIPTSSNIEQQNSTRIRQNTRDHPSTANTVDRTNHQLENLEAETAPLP

[7] = target: 5-hydroxytryptamine receptor 5A (Homo sapiens, UniProt P47898); assay: Counterscreen for agonists of OPRM1-OPRD1 heterodimerization: luminescence-based cell-based high throughput dose response assay to identify agonists of 5-hydroxytryptamine (serotonin) 5A receptor (HTR5A). [Related pubchem assays (depositor defined):AID504326, AID504355, AID504692, AID504904, AID504905]; type: functional
5-hydroxytryptamine receptor 5A, sequence (P47898 whole entry): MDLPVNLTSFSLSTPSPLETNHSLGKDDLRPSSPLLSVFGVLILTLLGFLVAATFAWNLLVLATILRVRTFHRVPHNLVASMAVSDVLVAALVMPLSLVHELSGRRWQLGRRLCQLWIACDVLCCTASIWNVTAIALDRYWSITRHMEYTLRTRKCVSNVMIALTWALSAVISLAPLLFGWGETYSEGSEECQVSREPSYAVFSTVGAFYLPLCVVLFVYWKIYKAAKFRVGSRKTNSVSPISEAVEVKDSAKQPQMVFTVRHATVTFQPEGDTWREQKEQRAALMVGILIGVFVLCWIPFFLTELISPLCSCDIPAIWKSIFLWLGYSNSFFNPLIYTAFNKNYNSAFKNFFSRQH

[8] = A Cell Based Secondary Assay To Explore Cytotoxicity of Compounds that Sensitize Mycobacterium Tuberculosis to Beta-Lactam Antibiotics.; type: functional
[9] = target: T1, Microphthalmia-associated transcription factor (Homo sapiens, UniProt O75030); assay: TRPM1 promoter luciferase signal decrease, dose response, MITF inhibitor project, cell-based, SK-MEL-5, cherry-picked, set 3 (AID 493073); type: functional
T1 sequence (O75030 whole entry): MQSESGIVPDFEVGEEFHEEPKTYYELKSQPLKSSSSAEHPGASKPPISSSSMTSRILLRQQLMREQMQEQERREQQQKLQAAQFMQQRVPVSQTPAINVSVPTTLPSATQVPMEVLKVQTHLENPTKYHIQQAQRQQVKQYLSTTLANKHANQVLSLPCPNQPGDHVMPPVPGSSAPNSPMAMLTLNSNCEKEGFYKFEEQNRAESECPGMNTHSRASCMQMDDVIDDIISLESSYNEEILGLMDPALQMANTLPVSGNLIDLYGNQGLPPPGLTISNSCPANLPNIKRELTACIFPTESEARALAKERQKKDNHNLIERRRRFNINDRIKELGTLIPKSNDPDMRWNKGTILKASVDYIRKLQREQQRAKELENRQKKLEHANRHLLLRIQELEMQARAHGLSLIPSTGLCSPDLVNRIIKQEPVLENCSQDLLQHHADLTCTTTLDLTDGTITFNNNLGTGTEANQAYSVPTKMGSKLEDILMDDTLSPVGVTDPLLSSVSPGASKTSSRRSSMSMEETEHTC

[10] = Shn3 3'UTR reporter inhibitors, dose response, cell-based, Clone20 osteoblasts, firefly luciferase, cherry-picked (AID 624132); type: functional;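 further: firefly luciferase luminescence from reporter carrying the Shn3 3'UTR in osteoblasts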
[11] = HepG2 cell cytotoxicity, dose response, cytotoxicity control for Shn3 inhibitor project, CellTiter-Glo, cherry-picked (AID 624134); type: functional, cell-based
[12] = control 3'UTR Renilla luciferase suppression, dose response, counter-screen for Shn3 inhibitor project, cell-based, Clone20-Shn3RL, cherry-picked (AID 624133); type: functional
[13] = test system: HeLa; assay: HeLa cell cytotoxicity, dose response, cytotoxicity control, 24 h, cherry-picked samples (AID 504726); type: functional, cell-based; details: Homo sapiens;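 further: potency for cytotoxicity as loss of luminescence signal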
[14] = target: T2, ORF 73 (Human herpesvirus 8, UniProt O40947); assay: inhibitors of C-LANA binding to LBS DNA, dose response, biochemical, fluorescence polarization, cherry-picked samples (AID 504725); parameters: species or system Human gammaherpesvirus 8;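 further: fluorescence polarization of a labeled DNA duplex reporting LANA DNA binding; potency is for inhibitors that block LANA binding to the DNA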
T2 sequence (O40947 whole entry): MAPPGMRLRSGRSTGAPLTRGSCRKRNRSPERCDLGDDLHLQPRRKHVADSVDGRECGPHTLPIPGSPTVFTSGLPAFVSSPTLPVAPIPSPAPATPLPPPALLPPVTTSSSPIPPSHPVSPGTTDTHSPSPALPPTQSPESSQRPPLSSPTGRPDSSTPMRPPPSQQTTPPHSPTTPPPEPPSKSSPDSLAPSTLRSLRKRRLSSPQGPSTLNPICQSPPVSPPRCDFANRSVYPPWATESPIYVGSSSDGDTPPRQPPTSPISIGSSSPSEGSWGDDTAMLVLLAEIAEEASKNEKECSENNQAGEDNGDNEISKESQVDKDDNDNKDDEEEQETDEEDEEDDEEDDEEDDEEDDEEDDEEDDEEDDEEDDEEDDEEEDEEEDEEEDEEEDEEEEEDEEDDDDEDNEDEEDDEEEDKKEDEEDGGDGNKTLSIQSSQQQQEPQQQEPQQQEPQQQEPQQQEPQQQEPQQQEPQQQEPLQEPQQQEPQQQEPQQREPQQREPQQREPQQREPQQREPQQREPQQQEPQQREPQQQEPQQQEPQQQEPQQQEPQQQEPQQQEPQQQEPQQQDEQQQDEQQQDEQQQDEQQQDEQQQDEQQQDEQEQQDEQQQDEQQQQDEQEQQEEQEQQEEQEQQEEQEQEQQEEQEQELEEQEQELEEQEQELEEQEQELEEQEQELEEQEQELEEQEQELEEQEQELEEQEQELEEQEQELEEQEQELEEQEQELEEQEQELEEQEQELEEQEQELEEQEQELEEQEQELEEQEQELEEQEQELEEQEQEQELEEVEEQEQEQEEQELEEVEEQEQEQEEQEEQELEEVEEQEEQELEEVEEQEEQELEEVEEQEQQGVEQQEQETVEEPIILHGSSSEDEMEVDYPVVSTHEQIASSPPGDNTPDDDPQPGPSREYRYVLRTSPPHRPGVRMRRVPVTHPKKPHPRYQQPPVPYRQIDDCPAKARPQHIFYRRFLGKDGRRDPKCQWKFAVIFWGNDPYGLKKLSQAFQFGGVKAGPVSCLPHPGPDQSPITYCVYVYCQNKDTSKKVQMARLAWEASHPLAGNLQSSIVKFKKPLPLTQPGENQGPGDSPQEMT

[15] = target: Cytochrome P450 2D6 (Homo sapiens, UniProt P10635);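 further: CYP2D6 member of a cytochrome P450 panel assay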
Cytochrome P450 2D6, sequence (P10635 whole entry): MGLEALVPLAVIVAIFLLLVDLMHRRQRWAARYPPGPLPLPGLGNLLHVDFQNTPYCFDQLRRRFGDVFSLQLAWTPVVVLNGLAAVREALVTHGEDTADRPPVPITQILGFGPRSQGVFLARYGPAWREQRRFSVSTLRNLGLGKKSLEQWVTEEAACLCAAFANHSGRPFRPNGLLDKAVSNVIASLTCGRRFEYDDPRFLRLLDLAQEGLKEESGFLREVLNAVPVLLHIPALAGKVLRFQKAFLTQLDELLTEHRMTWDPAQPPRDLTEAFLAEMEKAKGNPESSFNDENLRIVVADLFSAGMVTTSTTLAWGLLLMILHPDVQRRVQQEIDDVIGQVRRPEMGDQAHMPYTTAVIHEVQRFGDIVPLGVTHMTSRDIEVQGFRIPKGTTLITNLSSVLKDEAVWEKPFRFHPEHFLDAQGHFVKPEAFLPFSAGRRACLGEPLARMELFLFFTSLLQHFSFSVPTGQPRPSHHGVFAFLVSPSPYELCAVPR

[16] = test system: HEK293; assay: cells; details: Homo sapiens
[17] = test system: HEK293; assay: cells; details: Homo sapiens; remark: listed apart in the source

In the case of CC(C)(CO)NC(=O)c1ccc2nc(Cc3cccc(Cl)c3)oc2c1, the AC50 [1] is reported as > 35 µM (active) and the AC50 [2] is reported as > 35 µM (active).
In the case of Cc1nc(NS(=O)(=O)c2ccccc2)sc1NC(=O)Nc1ccc(Cl)cc1, the AC50 [3] is reported as 27 µM (active) and the AC50 [4] is reported as > 380 µM (inactive).
With CCOC(=O)c1c(C)[nH]c(C(=O)OCC(O)=C(C#N)c2nc3ccccc3[nH]2)c1C the EC50 [5] was > 92.5 µM (inactive), the EC50 [6] was > 92.5 µM (inactive) and the EC50 [7] was > 92.5 µM (inactive).
In the case of O=C(Nc1ccc2nc3n(c(=O)c2c1)CCCC3)c1cc([N+](=O)[O-])ccc1F, the CC50 [8] is reported as 15.1 µM (active), the AC50 [9] is reported as 11.5 µM (active) and the AC50 [1] is reported as > 35 µM (active). For the same compound, the AC50 [2] was > 35 µM (active), the AC50 [10] was 0.361 µM (active) and the AC50 [11] was 39.2 µM (active). For the same compound, the AC50 [12] was 21.8 µM (active).
With CC(C)(C)n1nnnc1C(c1cccnc1)N(Cc1ccccc1)Cc1ccco1 (centres undefined) the AC50 [13] was 75.8 µM (active), the AC50 [14] was 0.592 µM (active) and the AC50 [15] was 31.6 µM (inconclusive). For the same compound, the EC50 [16] was > 59.6 µM (inactive) and the EC50 [17] was > 59.6 µM (inactive).
